Data on two compounds can be found in paper PMC12476087, “Loading of Dicarboxylatoplatinum(II)‐NHC Complexes in Bacterial Ghosts as an Advanced Development in Cancer Therapy” (Archiv Der Pharmazie, 2025).

Structures are written as SMILES.

Holding throughout (type): cell-based
The subject of assay [1] is A2780wt cells. The assay is described as follows: MTT assay, A2780wt cells. The note with it: MTT assay, 72 h exposure. As to the method:
(§1) Carboplatin, a second‐generation platinum drug commonly used as part of standard first‐line chemotherapy for ovarian carcinoma, was examined as a reference compound due to its clinical relevance. Additionally, the nonmalignant bone marrow stromal cell line HS‐5 was included as a control to assess specificity of the complexes toward cancer cells.
(§2) Unloaded BGs (4 × 10^8 EcN or 2 × 10^8 Ec NM522, which is equivalent to the highest tested BG concentration) were tested as controls.
(§3) The exponentially growing cells were seeded at a density of 8 × 10^3 cells/well (A2780wt/cis) or 1 × 10^4 cells/well (HS‐5), respectively, into clear flat‐bottom 96‐well plates in triplicates. […] After another 72 h of incubation, the cellular metabolic activity was measured as an indicator of cell viability employing an MTT assay. Hereby, 20 µL of a 5 mg/mL MTT solution was added to each well, respectively. After 3 h of incubation, the medium was discarded, and the formazan crystals formed were dissolved in DMSO for 15 min with gentle shaking. […] The OD at 620 nm was subtracted from the OD at 595 nm. The OD of the medium was subtracted to exclude the unspecific staining caused by FCS‐containing medium. Cells treated with vehicle control (0.1% DMF) only were set at 100% metabolic activity. The IC50 values were calculated with Prism 8.0 (GraphPad Software Inc., Boston, MA, USA) using nonlinear regression. Significance was evaluated via a one sample t‐test performed with Prism 8.0.
Background: Tetrazolium assays rely on reduction of a dye to a coloured formazan, in cell work by metabolically active cells.

For assay [2], the system named is A2780cis cells. Description: MTT assay, A2780cis cells. As to the method: as §1, §2, §3
Another assay deals with HS‐5 cells. The assay is described as follows: MTT assay, HS‐5 cells. The note with it: 72 h exposure, nonmalignant bone marrow stromal cells. The protocol:
as §1
The exponentially growing cells were seeded at a density of 8 × 10^3 cells/well (A2780wt/cis) or 1 × 10^4 cells/well (HS‐5), respectively, into clear flat‐bottom 96‐well plates in triplicates. Following 24 h of incubation for the adherence of the cells at 37°C in a humidified atmosphere (5% CO2/95% air), the test compounds were added. […] For the evaluation of the cell growth inhibition by the compounds loaded in BGs, the BG suspensions were directly diluted in RPMI 1640 to the desired testing concentration (25 µM). After another 72 h of incubation, the cellular metabolic activity was measured as an indicator of cell viability employing an MTT assay. Hereby, 20 µL of a 5 mg/mL MTT solution was added to each well, respectively. After 3 h of incubation, the medium was discarded, and the formazan crystals formed were dissolved in DMSO for 15 min with gentle shaking. Afterward, the optical density (OD) was measured at 595 and 620 nm, respectively on an EnSpire Multimode Plate Reader (revvity, Waltham, MA, USA). The OD at 620 nm was subtracted from the OD at 595 nm. The OD of the medium was subtracted to exclude the unspecific staining caused by FCS‐containing medium. Cells treated with vehicle control (0.1% DMF) only were set at 100% metabolic activity. The IC50 values were calculated with Prism 8.0 (GraphPad Software Inc., Boston, MA, USA) using nonlinear regression. Significance was evaluated via a one sample t‐test performed with Prism 8.0.

Assay [3] has as its system A2780wt cells. The assay is described as follows: Comet assay (intracellular DNA damage). The note with it: 50 µM, 48 h incubation. As to the method: Given that platinum‐based drugs are known to commonly induce DNA damage, a comet assay was conducted using A2780wt cells. This assay detects DNA damage such as DNA single/double strand breaks and DNA fragmentation, a common feature of apoptosis. […] DMF (0.1%)‐treated cells were used as a negative control to establish baseline DNA integrity.
Cellular DNA damage can be visualized by employing a comet assay, which is a single cell gel electrophoresis assay. Hereby, A2780wt cells were seeded at a density of 2 × 10^6 into 25 cm^2 flasks. After letting the cells adhere for 24 h in a humidified atmosphere, the cell culture medium was exchanged for medium containing the respective compound. The cells were then incubated for 48 h with the platinum complexes or 4 h with etoposide, respectively. After incubation, the cell growth was stopped by removing the compound‐containing medium, washing the cells with phosphate‐buffered saline (PBS) and detaching them with a rubber policeman. The detached cells were then centrifuged at 700g for 2 min and the resulting pellet was then washed with 5 mL of PBS. After that, the cells were adjusted to a concentration of 1 × 10^6 cells/mL and were resuspended in ice cold PBS. A total of 75 µL of liquified agarose per condition was transferred onto the slide to create a base layer. This base layer was solidified by transferring the slide to 4°C for 15 min. Afterwards, 10 µL of the above‐mentioned cell suspension in PBS were mixed with 90 µL of agarose. A total of 75 µL of this was added to each base layer, respectively. This layer was also allowed to solidify at 4°C for 15 min. The slide was then transferred to a small basin which contained pre‐chilled lysis buffer (14.6 g NaCl, 20 mL EDTA solution, 10 mL lysis solution, 10 mL DMSO, 60 mL deionized H2O), where it remained for 45 min in the dark at 4°C. The lysis buffer was then aspirated and exchanged with a pre‐chilled alkaline solution (1.2 g NaOH, 0.2 mL EDTA solution, 100 mL deionized H2O), where it remained for further 30 min in the dark at 4°C. The slide was then transferred to a horizontal electrophoresis chamber which was filled with cold alkaline solution. The electrophoresis conditions were set to 1.5 V/cm and 300 mA for 20 min. After the electrophoresis, the slide was transferred into a small basin containing pre‐chilled, deionized H2O. After 2 min, the water was aspirated and this washing step was repeated twice more. After the final rinse, the slide was submerged in 70% ethanol for 5 min. Once the slide has dried, 100 µL of diluted Vista Green DNA Dye was added to each well. After 15 min of incubation, the slides were analyzed on an IX‐70 epifluorescence microscope (Olympus, Shinjuku, Japan) using a FITC filter.

For assay [4], the system named is A2780wt cells. Description: Annexin V/PI staining and FACS analysis, A2780wt. To be noted: reference at 50 µM, 24 h. As to the method: (§4) Therefore, we aimed to evaluate the apoptosis and necrosis inducing potential of complexes 1–4 via a fluorescent‐activated cell sorting (FACS) analysis with Annexin V/propidium iodide (PI) staining in A2780wt and A2780cis cells. Cells were treated for 24 h with both the free and BG‐loaded forms of each compound at 25 µM. Carboplatin (50 µM) served as a reference.
(§5) To evaluate the mode of cell death, a FACS measurement after staining with Annexin V and PI was conducted. First, 0.3 × 10^6 A2780wt or A2780cis cells were seeded into 12‐well plates and were allowed to adhere for 24 h. The compounds were added at 25 µM, either diluted from a freshly prepared DMF stock solution (0.1% DMF) or freshly thawed when loaded in BGs. After 24 h of incubation, the cells were harvested with accutase and washed with PBS. The cells were then resuspended in 200 µL of PBS each and 1 µL of PI solution (Sigma‐Aldrich, Taufkirchen, Germany) and 1 µL of Annexin V‐FITC (MabTag GmbH, Friesoythe, Germany) were added to each sample. These were then incubated for 20 min at rt under light‐protected conditions and afterward transferred onto ice. The percentage of apoptotic cells was determined by analyzing Annexin V positive /PI negative cells using a BD LSRFortessa flow cytometer and BD FACSDiva software (both BD Biosciences, San Jose, CA, USA). The apoptosis analysis included the evaluation of early apoptosis (Annexin V positive/PI negative) and late apoptosis/necrosis (Annexin V positive /PI positive).

In assay [5] the test system is A2780cis cells. The assay is described as follows: Annexin V/PI staining and FACS analysis, A2780cis. The note with it: reference at 50 µM, 24 h. As to the method:
as §4, §5
For orientation: A flow cytometer gives signals particle by particle.

Assay [6] has as its system surface calreticulin on A2780wt cells. Description: Immunofluorescent surface calreticulin staining, A2780wt. The note with it: oxaliplatin at 1 µM for 24 h. The protocol:
(§6) Oxaliplatin, a known metal‐based ICD inducer, was included for comparison.
(§7) A2780wt or A2780cis cells were seeded at a density of 1.2 × 10^5 on cover slips and allowed to adhere for 24 h. […] Subsequently, the cells were washed again three times with PBS and they were incubated after adding the secondary antibody (Alexa‐Fluor‐conjugated anti‐rabbit, 1:200), for 45 min at rt. Subsequently, the cells were washed again three times with PBS and they were mounted on slides with mounting medium. After letting them dry overnight, visualization was performed by spinning disk confocal microscopy. […] Acquired images were background subtracted, individual cells were manually segmented, and fluorescence intensity for the calreticulin staining was quantified with a FIJI software. Two repetitions of the experiment were performed, where at least 20 cells per condition were analyzed and the mean intensity of each sample was calculated, respectively.

Assay [7] relates to surface calreticulin on A2780cis cells. The assay is described as follows: Immunofluorescent surface calreticulin staining, A2780cis. The note with it: oxaliplatin at 1 µM for 24 h. As to the method:
as §6, §7

By IC50 is commonly meant the concentration needed to halve the response being measured. High values mean weaker potency, low ones greater potency.

Consider `[NH2][Pt]1([NH2])[O]C(=O)C2(CCC2)C(=O)[O]1` [Carboplatin, (SP‐4‐2)‐diammine(1,1‐cyclobutanedicarboxylato)platinum(II), reference compound], for which the IC50 was 33.6 ± 2.1 µM in the assay on A2780wt cells [1], 104 ± 11.5 µM in the assay on A2780cis cells [2] (72 h exposure) and 24.4 ± 0.99 µM with HS‐5 cells. For the same compound, the “Resistance factor RF = IC50(A2780cis)/IC50(A2780wt)” value in the assay on A2780cis cells [2] (72 h) was 3.1. In the assay on A2780wt cells [3], the “intracellular DNA damage (comet formation)” value is listed as “did not show any evidence of comet formation”. Besides, the early apoptosis turned out to be 7.90 ± 0.29 with A2780wt cells [4] and 6.47 ± 1.75 in the assay with A2780cis cells [5]. The late apoptosis/ necrosis was 16.8 ± 0.69 with A2780wt cells [4] and 12.6 ± 1.17 in the assay with A2780cis cells [5].

Consider `O=C1[O][Pt]2([NH][C@@H]3CCCC[C@H]3[NH]2)[O]C1=O` [oxaliplatin, (SP‐4‐2)‐(1R,2R‐diaminocyclohexane)oxalatoplatinum(II), reference compound], for which the results for the “x‐fold intensity of surface calreticulin compared to untreated cells” value in assay [6] and in assay [7] were 0.86 ± 0.24 x‐fold and 1.36 ± 0.24 x‐fold, respectively.
